Earlier results, collected in US6826488B1, “Crystals, molecular complexes, and methods of developing lead compounds for inhibitors of bacterial IMPDH” (The University of Chicago, priority 2000, dated 2004).

Assays:
bacterial IMPDH enzymes = conditions: bacterial enzymes inhibited by MPA only at very high concentrations
mammalian IMPDH enzymes = conditions: mammalian relative to bacterial IMPDH enzymes

In the case of `COc1c(C)c2c(c(O)c1C/C=C(\C)CCC(=O)O)C(=O)OC2` [MPA, Mycophenolic acid], the Ki (bacterial IMPDH enzymes) is given as > 500 µM and the “times more sensitive to inhibition (mammalian vs bacterial IMPDH enzymes)” value (mammalian IMPDH enzymes) is given as 10-100 times.
